Reference: ChEMBL document CHEMBL1201862, “PubChem BioAssay data set” (2004)
Active and inactive are the calls of the source.

How the values were obtained:
[1] = molecular target: G-protein coupled receptor 55 (Homo sapiens, UniProt Q9Y2T6); assay: GPR55 agonists via beta-arrestin recruitment, primary screen, imaging, U2OS cells, beta-arrestin-GFP redistribution (AID 1961); format: functional
[2] = molecular target: T1, Heat shock factor protein 1 (Mus musculus, UniProt P38532); assay: HSF1 potentiators in luciferase reporter cells, confirmation, cell-based, NIH3T3, luminescence, dose retest (AID 435004); format: functional;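 further: stress induced by proteasome inhibitor MG132 added 30 min after compound; luciferase reporter driven by HSF1 response element in NIH3T3 cells; actives raise luminescence as potentiators of the MG132 stress response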
T1 sequence (P38532 whole entry): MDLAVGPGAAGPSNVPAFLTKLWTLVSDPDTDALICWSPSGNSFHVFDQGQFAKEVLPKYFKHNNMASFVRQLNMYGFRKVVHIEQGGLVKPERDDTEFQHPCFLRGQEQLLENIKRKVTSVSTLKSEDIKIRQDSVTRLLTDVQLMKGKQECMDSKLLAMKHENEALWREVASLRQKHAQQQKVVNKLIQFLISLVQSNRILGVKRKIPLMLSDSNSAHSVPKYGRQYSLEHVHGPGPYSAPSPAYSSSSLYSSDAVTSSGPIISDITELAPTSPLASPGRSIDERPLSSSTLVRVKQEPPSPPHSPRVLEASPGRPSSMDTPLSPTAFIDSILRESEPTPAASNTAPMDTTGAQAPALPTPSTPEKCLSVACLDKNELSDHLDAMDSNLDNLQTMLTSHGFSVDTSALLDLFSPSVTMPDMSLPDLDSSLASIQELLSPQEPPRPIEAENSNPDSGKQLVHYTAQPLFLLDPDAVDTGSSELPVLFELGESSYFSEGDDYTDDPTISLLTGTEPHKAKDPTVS

[3] = molecular target: T2, Replicative DNA helicase DnaB (Mycobacterium tuberculosis, UniProt P9WMR3); assay: DnaB intein splicing inhibitors, dose response, biochemical, cell-free fluorescence (AID 449749); format: functional
T2 sequence (P9WMR3 whole entry): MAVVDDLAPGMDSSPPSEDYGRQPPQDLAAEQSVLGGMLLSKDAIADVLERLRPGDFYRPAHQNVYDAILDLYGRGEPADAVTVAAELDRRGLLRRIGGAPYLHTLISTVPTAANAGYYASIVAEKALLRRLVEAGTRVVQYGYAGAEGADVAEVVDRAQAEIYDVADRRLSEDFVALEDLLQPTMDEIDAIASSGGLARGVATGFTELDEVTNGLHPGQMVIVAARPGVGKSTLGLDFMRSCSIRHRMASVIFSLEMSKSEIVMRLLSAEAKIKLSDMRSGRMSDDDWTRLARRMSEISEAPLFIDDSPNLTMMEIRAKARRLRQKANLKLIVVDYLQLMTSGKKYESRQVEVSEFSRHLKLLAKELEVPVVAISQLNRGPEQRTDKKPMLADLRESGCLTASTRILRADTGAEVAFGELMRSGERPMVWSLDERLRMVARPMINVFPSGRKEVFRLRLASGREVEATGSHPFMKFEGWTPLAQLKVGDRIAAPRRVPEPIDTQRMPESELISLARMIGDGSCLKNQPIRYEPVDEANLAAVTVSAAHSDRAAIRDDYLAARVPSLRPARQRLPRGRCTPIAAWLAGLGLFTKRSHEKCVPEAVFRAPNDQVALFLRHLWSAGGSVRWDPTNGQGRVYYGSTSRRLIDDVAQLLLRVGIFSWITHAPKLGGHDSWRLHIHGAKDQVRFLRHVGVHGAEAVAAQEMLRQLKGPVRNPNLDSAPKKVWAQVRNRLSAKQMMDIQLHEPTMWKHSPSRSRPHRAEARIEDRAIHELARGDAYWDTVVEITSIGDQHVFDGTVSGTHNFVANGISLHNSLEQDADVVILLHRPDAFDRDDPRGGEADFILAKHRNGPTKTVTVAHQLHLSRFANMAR

[4] = molecular target: T3, Protein RecA (Mycobacterium tuberculosis, UniProt P9WHJ3); assay: Fluorescence Cell-Free Homogeneous Dose Retest to Identify Inhibitors of RecA-Intein Splicing Activity. [Related pubchem assays (depositor defined):AID2097, AID2223, AID489010, AID492950]; format: functional
T3 sequence (P9WHJ3 whole entry): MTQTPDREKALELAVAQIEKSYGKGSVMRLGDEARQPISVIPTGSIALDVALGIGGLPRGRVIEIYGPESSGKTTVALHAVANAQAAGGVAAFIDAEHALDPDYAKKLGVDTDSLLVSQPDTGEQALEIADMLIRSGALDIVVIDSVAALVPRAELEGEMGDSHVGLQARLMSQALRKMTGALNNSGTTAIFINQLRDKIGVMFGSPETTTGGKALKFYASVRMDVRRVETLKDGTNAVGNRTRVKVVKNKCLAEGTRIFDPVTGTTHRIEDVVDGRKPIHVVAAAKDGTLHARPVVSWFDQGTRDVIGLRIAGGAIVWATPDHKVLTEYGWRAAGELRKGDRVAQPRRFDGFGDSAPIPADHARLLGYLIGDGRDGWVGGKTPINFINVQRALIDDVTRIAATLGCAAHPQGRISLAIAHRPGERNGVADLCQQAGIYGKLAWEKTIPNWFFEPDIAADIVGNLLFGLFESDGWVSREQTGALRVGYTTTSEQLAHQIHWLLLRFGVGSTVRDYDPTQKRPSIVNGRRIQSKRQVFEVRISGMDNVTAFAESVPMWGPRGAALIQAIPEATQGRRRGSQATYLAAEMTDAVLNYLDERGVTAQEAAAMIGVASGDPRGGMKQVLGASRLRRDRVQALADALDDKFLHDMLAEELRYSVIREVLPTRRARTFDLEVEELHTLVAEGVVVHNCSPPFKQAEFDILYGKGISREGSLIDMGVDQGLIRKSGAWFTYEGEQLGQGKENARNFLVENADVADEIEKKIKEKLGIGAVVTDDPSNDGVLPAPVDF

[5] = HEp-2 cell cytotoxicity, dose response, cytotoxicity control for RSV inhibitor project, HTS (AID 2410); format: functional; conditions: human respiratory syncytial virus
[6] = molecular target: Large T antigen (Simian virus 40, UniProt P03070); format: functional, Betapolyomavirus macacae;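 further: Confirmatory-stage PubChem screen for compounds that inhibit SV40 T antigen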
[7] = molecular target: NS3 (Hepatitis C virus, UniProt A3EZJ3); assay: PubChem AID 2173; design: species or system Hepacivirus hominis
[8] = molecular target: DNA damage-inducible transcript 3 protein (Mus musculus, UniProt P35639); format: functional, Cricetulus griseus
[9] = tested on: INS1; assay: beta cell apoptosis inhibitors, cytokine rescue, dose response, luminescence, retest (AID 449756); format: functional, cell-based; conditions: Rattus norvegicus;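 further: cell death triggered by IL-1 beta plus TNF-alpha plus IFN-gamma mixture; protective hits raise ATP signal compared with cytokine alone wells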
[10] = THP-1 cell cytotoxicity, dose response, cytotoxicity control for non-replicating M. tuberculosis project (AID 489025); format: functional
[11] = Luminescence Cell-Based Dose Retest to Confirm Inhibitors of Cancer Stem Cells. [Related pubchem assays (depositor defined):AID2717, AID2721]; format: functional; conditions: Homo sapiens
[12] = HepG2 cell cytotoxicity, dose response, cytotoxicity control for non-replicating M. tuberculosis project (AID 489018); format: functional; conditions: Mycobacterium tuberculosis
[13] = molecular target: T4, Ubiquitin-conjugating enzyme E2 N (Homo sapiens, UniProt P61088); format: functional;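 further: Dose-response confirmation in a TR-FRET assay detecting UBC13-driven polyubiquitin chain formation, inhibition measured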
T4 sequence (P61088 whole entry): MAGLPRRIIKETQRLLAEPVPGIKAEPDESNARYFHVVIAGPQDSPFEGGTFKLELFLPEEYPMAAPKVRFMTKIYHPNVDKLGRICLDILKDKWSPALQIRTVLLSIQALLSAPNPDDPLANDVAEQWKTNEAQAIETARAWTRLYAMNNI

[14] = Vero E6 cell cytotoxicity, dose response, cytotoxicity control for non-replicating M. tuberculosis project, secondary assay (AID 492998); format: functional, VeroE6; conditions: Vero C1008
[15] = cells; format: functional
[16] = molecular target: X-box-binding protein 1 (Homo sapiens, UniProt P17861); format: functional, Cricetulus griseus;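 further: confirmatory dose-response counter-screen serving a CHOP assay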
[17] = molecular target: Luciferin 4-monooxygenase (Photinus pyralis, UniProt P08659); assay: Counter Screen for Luciferase-based Assay Positives. [Related pubchem assays: 620, 618, 411 ]
[18] = inhibitors of intracellular T. cruzi replication, confirmation, NIH3T3 host cells, beta-gal luminescence (AID 2044); format: functional, cell-based;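 further: intracellular parasites grown in NIH/3T3 mouse fibroblasts as host cells; luminescent beta-galactosidase reporter signal from transgenic T. cruzi replicating inside host cells; inhibitors lower the luminescence signal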
[19] = tested on: HT-1080; assay: cytotoxicity in HT1080 fibrosarcoma cells, cell-based, fluorescence readout (AID 620); format: functional; conditions: Homo sapiens
[20] = cytotoxicity toward NIH3T3 fibroblasts, dose response, counter-screen, cell-based, ATP luminescence, mouse fibroblasts (AID 2010); format: functional;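 further: cells exposed to compound for about 90 hours before reading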
[21] = tested on: Vero; assay: cells; format: functional, cell-based; conditions: Chlorocebus sabaeus
[22] = tested on: Vero; assay: cells; format: functional; conditions: Chlorocebus sabaeus
[23] = molecular target: T5, Type-1 angiotensin II receptor (Homo sapiens, UniProt P30556); assay: AT1 receptor agonists, dose response, selectivity assay for APJ receptor agonist project, cell-based, uHTS hits (AID 488865); format: functional;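 further: beta-arrestin recruitment to AT1 measured by enzyme fragment complementation luminescence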
T5 sequence (P30556 whole entry): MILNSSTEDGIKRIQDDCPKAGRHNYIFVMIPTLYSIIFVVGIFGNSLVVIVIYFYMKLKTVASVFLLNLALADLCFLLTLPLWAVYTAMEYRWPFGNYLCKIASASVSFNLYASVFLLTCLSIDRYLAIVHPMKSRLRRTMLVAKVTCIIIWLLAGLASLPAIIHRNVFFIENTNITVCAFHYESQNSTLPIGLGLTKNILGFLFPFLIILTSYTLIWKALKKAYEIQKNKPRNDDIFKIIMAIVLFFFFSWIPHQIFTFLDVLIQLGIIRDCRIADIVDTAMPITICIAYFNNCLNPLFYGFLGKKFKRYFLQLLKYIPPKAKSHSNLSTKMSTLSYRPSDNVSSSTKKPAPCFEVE

[24] = molecular target: Cytochrome P450 2C9 (Homo sapiens, UniProt P11712)
[25] = molecular target: CAAX prenyl protease 2 (Saccharomyces cerevisiae S288c, UniProt Q03530); format: biochemical
[26] = molecular target: Glyceraldehyde-3-phosphate dehydrogenase (Homo sapiens, UniProt P04406)
[27] = molecular target: T6, Alkaline phosphatase, tissue-nonspecific isozyme (Homo sapiens, UniProt P05186); assay: human TNAP enzyme inhibitors, SAR follow-up, biochemical, luminescent, dose response (AID 1056)
T6 sequence (P05186 whole entry): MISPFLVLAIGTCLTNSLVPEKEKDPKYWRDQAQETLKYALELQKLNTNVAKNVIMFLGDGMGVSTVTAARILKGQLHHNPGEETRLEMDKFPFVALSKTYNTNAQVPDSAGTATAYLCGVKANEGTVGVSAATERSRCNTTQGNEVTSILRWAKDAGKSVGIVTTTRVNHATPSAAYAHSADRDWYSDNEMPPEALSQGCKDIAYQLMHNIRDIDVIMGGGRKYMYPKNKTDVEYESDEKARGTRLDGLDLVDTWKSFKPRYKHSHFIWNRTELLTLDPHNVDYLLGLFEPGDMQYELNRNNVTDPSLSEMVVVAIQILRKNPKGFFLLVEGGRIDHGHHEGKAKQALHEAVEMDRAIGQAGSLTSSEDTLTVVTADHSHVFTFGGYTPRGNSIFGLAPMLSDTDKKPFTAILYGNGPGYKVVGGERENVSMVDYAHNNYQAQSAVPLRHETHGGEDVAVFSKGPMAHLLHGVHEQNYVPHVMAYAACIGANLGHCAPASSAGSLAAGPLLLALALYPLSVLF

[28] = molecular target: Hexokinase (Trypanosoma brucei, UniProt Q38C41); assay: Confirmation assay for inhibitors of Trypanosoma brucei hexokinase 1-Analogue-first series. [Related pubchem assays (depositor defined):AID1430, AID1632, AID2516, AID2560, AID2579, AID2600, AID449725, AID492951]; format: functional
Sequence of Hexokinase (Q38C41 whole entry): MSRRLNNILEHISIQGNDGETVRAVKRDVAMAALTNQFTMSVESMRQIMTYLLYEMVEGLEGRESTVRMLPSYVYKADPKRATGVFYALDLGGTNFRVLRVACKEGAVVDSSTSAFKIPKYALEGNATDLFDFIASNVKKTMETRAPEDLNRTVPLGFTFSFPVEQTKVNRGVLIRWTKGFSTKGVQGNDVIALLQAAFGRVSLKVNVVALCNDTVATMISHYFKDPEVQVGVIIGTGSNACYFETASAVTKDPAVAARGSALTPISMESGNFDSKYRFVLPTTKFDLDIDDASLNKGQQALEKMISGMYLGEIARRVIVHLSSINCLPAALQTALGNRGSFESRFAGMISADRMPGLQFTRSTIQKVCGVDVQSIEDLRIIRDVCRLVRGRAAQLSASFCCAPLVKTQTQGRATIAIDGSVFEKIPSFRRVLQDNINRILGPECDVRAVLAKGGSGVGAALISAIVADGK

Sequence of DNA damage-inducible transcript 3 protein (P35639 whole entry): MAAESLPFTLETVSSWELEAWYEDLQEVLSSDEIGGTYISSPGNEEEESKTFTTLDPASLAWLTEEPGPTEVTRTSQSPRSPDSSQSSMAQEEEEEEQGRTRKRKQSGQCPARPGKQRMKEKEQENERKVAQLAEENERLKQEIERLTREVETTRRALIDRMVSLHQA
Sequence of G-protein coupled receptor 55 (Q9Y2T6 whole entry): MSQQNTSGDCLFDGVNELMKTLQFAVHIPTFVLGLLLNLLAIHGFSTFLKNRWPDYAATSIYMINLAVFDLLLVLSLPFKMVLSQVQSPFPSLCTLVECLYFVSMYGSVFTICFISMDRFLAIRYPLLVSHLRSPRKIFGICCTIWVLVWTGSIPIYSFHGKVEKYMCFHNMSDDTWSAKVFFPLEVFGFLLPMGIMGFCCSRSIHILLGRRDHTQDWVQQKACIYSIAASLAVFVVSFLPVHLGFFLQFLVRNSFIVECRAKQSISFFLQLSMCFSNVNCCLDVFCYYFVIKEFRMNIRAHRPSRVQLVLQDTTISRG
Sequence of Glyceraldehyde-3-phosphate dehydrogenase (P04406 whole entry): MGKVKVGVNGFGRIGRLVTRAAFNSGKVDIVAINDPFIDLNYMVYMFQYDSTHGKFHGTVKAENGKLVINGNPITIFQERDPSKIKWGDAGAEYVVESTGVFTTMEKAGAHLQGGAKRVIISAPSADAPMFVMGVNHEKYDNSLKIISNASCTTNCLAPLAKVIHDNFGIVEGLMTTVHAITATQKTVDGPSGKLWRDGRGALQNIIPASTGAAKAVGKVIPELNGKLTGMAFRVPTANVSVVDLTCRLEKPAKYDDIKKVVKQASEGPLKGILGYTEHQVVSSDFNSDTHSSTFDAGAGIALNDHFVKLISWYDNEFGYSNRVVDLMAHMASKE
Sequence of Large T antigen (P03070 whole entry): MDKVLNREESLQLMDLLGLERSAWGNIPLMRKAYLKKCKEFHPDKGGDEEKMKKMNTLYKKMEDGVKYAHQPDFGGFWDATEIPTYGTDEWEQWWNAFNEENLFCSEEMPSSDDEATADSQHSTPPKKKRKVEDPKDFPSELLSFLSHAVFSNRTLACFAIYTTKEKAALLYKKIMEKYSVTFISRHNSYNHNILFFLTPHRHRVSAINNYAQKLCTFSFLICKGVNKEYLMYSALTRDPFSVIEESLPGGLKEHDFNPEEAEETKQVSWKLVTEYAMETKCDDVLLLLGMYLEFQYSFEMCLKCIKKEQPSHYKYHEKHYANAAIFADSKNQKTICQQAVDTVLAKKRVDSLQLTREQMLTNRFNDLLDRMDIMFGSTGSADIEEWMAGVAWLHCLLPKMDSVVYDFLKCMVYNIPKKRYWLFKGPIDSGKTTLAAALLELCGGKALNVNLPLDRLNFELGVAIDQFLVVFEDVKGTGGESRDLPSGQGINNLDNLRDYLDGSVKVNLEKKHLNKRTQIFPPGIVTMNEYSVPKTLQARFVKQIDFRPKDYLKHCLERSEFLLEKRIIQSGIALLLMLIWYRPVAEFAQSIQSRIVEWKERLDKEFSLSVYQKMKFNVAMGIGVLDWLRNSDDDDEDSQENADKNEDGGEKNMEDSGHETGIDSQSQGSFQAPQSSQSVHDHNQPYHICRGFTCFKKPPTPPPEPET
Sequence of CAAX prenyl protease 2 (Q03530 whole entry): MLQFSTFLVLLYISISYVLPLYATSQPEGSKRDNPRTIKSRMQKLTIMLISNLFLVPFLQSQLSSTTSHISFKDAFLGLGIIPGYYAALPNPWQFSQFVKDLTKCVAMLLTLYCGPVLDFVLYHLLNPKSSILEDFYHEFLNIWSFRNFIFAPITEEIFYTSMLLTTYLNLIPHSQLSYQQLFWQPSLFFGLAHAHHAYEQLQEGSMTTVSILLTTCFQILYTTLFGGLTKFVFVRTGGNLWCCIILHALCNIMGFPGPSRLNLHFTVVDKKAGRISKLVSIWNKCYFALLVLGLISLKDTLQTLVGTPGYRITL
Sequence of X-box-binding protein 1 (P17861 whole entry): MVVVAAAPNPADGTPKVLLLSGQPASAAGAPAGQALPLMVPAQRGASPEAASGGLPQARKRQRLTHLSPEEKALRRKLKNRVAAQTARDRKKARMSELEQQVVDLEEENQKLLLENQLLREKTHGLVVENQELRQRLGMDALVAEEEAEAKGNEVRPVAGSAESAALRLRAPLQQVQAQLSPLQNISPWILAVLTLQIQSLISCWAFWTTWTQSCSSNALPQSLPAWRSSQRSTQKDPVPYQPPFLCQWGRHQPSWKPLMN
Sequence of Cytochrome P450 2C9 (P11712 whole entry): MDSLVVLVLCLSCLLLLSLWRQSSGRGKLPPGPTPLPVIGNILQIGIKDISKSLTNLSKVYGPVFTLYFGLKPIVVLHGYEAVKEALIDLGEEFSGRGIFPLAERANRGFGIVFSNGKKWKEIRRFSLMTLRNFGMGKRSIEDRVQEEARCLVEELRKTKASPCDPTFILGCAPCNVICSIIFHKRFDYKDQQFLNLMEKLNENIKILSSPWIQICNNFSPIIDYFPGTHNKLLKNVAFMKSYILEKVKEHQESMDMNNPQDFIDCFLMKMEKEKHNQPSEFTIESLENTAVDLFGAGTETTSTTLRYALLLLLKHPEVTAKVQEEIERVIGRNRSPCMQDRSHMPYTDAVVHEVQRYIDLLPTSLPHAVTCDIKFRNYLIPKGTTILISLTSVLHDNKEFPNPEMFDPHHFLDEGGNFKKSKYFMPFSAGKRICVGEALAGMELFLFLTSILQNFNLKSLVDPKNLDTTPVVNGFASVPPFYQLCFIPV
Sequence of Luciferin 4-monooxygenase (P08659 whole entry): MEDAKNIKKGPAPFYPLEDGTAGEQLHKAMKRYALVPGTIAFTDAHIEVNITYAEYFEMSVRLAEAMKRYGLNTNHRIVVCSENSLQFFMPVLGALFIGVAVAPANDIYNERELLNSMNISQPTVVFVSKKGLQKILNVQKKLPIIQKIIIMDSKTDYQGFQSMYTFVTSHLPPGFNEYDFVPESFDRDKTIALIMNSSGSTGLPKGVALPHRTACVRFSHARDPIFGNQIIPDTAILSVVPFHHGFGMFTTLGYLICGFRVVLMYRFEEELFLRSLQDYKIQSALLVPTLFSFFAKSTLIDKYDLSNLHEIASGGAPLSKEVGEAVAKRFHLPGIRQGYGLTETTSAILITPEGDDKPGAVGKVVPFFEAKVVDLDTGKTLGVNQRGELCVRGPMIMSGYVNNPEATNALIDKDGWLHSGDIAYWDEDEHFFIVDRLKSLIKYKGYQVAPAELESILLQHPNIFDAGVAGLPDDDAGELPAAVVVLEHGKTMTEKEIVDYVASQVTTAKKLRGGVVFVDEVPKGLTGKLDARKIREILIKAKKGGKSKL
Sequence of NS3 (A3EZJ3 whole entry): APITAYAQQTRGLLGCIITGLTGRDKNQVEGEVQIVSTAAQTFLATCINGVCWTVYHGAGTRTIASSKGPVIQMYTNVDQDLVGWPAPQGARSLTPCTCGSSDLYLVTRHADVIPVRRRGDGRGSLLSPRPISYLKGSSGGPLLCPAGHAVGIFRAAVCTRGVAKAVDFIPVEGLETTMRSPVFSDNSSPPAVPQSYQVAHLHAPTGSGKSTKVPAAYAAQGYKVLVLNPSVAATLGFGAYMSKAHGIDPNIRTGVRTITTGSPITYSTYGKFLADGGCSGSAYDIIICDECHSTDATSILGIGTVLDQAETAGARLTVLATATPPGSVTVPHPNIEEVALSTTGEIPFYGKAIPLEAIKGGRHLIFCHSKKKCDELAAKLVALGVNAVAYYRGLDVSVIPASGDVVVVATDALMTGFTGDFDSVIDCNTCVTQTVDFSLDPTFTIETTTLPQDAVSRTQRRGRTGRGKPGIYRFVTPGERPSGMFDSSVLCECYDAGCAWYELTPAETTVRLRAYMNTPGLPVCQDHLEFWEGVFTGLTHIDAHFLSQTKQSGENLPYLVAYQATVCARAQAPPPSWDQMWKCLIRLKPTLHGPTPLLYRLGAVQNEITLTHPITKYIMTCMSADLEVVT

## CCOC(=O)c1c(NC(=S)N2CCCCC2)sc2c1CCN(C(=O)OCC)C2
[1]
  EC50: 5.41 µM (active)
[2]
  EC50: 12.3 µM (active)
[3]
  AC50: 3.64 µM (active)
[4]
  EC50: 12.7 µM (active)

## Cc1ccc(N2C(=O)NC(=O)/C(=C\C=C\c3ccco3)C2=O)cc1C
[5]
  CC50: > 50 µM (active)
[6]
  IC50: 16.4 µM (active)
[7]
  IC50: 14.4 µM (not active)
[2]
  EC50: 4.85 µM (active)
[8]
  Absolute IC50 (CHOP): 10 µM
[9]
  AC50: 4.83 µM (active)

## c1ccc(C[C@H]2CNCCN2CCCCC2CCCCC2)cc1
[10]
  CC50: 13.9 µM (active)
[11]
  AC50: 7.01 µM (active)
[12]
  CC50: 12.2 µM (active)
[13]
  IC50: > 20 µM (inactive)
[14]
  CC50: 18.1 µM (active)
[15]
  IC50: 27.4 µM (active)

## Oc1ccc(Cl)cc1C1=NNC(c2cccs2)C1 (configuration not stated)
[10]
  CC50: 22.6 µM (active)
[12]
  CC50: > 20 µM (active)
[14]
  CC50: > 20 µM (active)
[15]
  IC50: 44.6 µM (active)

## CCc1nc(NCC(C)C)c(C#N)c2c1COC(C)(C)C2
[8]
  Absolute IC50 (CHOP): 10 µM
[16]
  Absolute IC50 (XBP1): 10 µM

## CCOC(=O)/C(=C\c1ccccc1)C(=O)c1cc(C(C)=O)c(Nc2ccccc2)s1
[17]
  EC50: < 0.2 µM (active)
[18]
  EC50: 2.35 µM (active)
[19]
  EC50: 20.3 µM (active)
[20]
  EC50: 6.8 µM (active)
[1]
  EC50: 1.06 µM (active)
[21]
  IC50: > 25 µM (active)
[9]
  AC50: 5.42 µM (active)
[22]
  CC50: 14.8 µM (active)

## COc1cc2c(cc1NC(=O)c1cc(-c3cccnc3)nc3ccc(C)cc13)oc1ccccc12
[23]
  EC50: > 100 µM (inactive)
[24]
  AC50: 2.51 µM (inconclusive)

## O=C(O)CCc1ccc(-c2cccs2)n1Cc1ccco1
[25]
  AC50: 2.57 µM (active)

## COC(=O)c1cc(-c2ccc(Cl)c(Cl)c2Cl)n[nH]1
[26]
  IC50: > 10 µM (inconclusive)
[27]
  IC50: 0.24 µM (active)

## COc1ccc(C(=O)O)c(NC(=O)c2ccc(Cl)cc2)c1
[28]
  IC50: > 25 µM (inactive)

## O=c1s[nH]c2ccccc12
[28]
  IC50: > 25 µM (inactive)
